The values below come from patent US8841291B2, “Selective hydroxamic acid based MMP-12 and MMP-13 inhibitors” (Novartis AG, priority 2008, dated 2014).

Experiment [1] addresses T1, Gelatinase (MMP-2) (Homo sapiens, UniProt P08253).
T1 sequence (P08253 110-660): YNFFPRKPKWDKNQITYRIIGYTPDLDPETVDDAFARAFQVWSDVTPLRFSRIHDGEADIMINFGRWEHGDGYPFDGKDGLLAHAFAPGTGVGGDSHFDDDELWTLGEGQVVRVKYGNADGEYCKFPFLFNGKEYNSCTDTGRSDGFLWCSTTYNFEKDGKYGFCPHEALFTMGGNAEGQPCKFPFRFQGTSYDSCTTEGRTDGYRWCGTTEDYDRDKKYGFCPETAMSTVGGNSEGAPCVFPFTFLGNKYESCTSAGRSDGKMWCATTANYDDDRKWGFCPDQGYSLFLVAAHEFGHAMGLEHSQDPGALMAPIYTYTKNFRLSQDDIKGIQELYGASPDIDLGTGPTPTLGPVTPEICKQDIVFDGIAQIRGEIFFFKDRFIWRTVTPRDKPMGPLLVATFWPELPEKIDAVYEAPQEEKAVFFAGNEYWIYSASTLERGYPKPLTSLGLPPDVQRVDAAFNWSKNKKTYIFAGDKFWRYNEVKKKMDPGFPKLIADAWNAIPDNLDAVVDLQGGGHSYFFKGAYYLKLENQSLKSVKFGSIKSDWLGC
Nature of the experiment: Gelatinase (MMP-2) inhibitory activity, fluorogenic peptide substrate assay. The experiment is classed as biochemical. As to conditions: substrate 5 μM, 60 min preincubation, 20-25° C.; read-out: MMP2 IC50.
Description: (§1) Stock solutions of inhibitors (0.03 mM-3 mM) are also prepared in DMSO. The inhibitors are diluted into the assay solutions, and the controls use an equal volume of DMSO so that the final DMSO concentration from the inhibitor and substrate dilutions in all assays is 1.0%. Assays are performed in an assay buffer (100 mM sodium chloride, 10 μM ZnCl. Sub 2, 10 mM CaCl2, 100 mM Tris-Cl pH7.5, 0.05% Brij-35), containing 1.0% DMSO from the substrate and inhibitor additions. The substrate concentration used in the assays is 5 μM. The assays are carried out at 20-25° C. […] The reaction mixtures are added in duplicate into appropriate wells of a 384-well assay plate. The reaction mixtures are preincubated with the inhibitors for 60 minutes The reactions are started by the addition of MMP substrate, and the fluorescence intensity changes are measured after 60 minutes The apparent enzyme activity in the presence of an inhibitor is then compared with that in the absence of any inhibitor to determine the inhibition effect of the inhibitor.

The target of experiment [2] is Collagenase-3 (MMP-13) (Homo sapiens, UniProt P45452). Briefly: Collagenase-3 (MMP-13) inhibitory activity, fluorogenic peptide substrate assay. The experiment is classed as biochemical. As to conditions: recombinant pro-collagenase-3 activated with 1 mM APMA; read-out: MMP13 IC50.
Description: as §1
Collagenase-3 (MMP-13) inhibitory activity is determined as described above. Recombinant pro-collagenase-3 is activated with 1 mM APMA, and stored in the assay buffer after extensive dialysis in the assay buffer.

By IC50 is commonly meant the concentration that gives 50% inhibition.

Structures are written as SMILES.

`CC(C)CCN([C@H](Cc1ccc(OCc2ccccc2)cc1)C(=O)NO)S(=O)(=O)c1ccc2ccccc2c1` [Example 25, (R)-3-(4-Benzyloxy-phenyl)-N-hydroxy-2-[(3-methyl-butyl)-(naphthalene-2-sulfonyl)-amino]-propionamide]: the IC50 in experiment [1] is 1.96 µM; in experiment [2], 0.0441 µM.
As to `Cc1ccc(Nc2ccc3cc(S(=O)(=O)N(Cc4ccccc4)[C@@H](C(=O)NO)C(C)C)ccc3c2)cc1` [Example 43, 2-[Benzyl-(6-p-tolylamino-naphthalene-2-sulfonyl)-amino]-N-hydroxy-3-methyl-butyramide], the IC50 in experiment [1] was > 0.3 µM; in experiment [2], 0.118 µM.
`CC(C)CCN([C@@H](C(=O)NO)C1CCN(C(=O)OC(C)(C)C)CC1)S(=O)(=O)c1ccc2ccccc2c1` [Example 82, 4-{Hydroxycarbamoyl-[(3-methyl-butyl)-(naphthalene-2-sulfonyl)-amino]-methyl}-piperidine-1-carboxylic acid tert-butyl ester]: the IC50 in experiment [1] and in experiment [2] was < 0.0003 µM in each case.
Consider `C=CC[C@@H](NS(=O)(=O)c1ccc2ccccc2c1)C(=O)NO` [Example 3, (R)-2-(Naphthalene-2-sulfonylamino)-pent-4-enoic acid hydroxyamide], for which the half-inhibitory concentration (IC50) worked out at 0.0222 µM in experiment [1] and 0.0356 µM in experiment [2].
As to `CC1=CC[C@H](C(=O)NO)N(S(=O)(=O)c2ccc3ccccc3c2)C1` [Example 60, (R)-5-Methyl-1-(naphthalene-2-sulfonyl)-1,2,3,6-tetrahydro-pyridine-2-carboxylic acid hydroxyamide], the results for the IC50 in experiment [1] and in experiment [2] were 0.0125 µM and 0.0009 µM, respectively.
Take `O=C(NO)[C@H]1CCCCN1S(=O)(=O)c1cnc2ccccc2c1` [Example 50, (R)-1-(Quinoline-3-sulfonyl)-piperidine-2-carboxylic acid hydroxyamide]: the values for the IC50 in experiment [1] and in experiment [2] were 0.975 µM and 0.132 µM, respectively.
Take `COc1c(S(=O)(=O)N2CC=CC[C@@H]2C(=O)NO)ccc2ccccc12` [Example 78, (R)-1-(1-Methoxy-naphthalene-2-sulfonyl)-1,2,3,6-tetrahydro-pyridine-2-carboxylic acid hydroxyamide]: the half-inhibitory concentration (IC50) in experiment [1] worked out at 0.0199 µM; in experiment [2] it was 0.0021 µM.
With `O=C(NO)C(NS(=O)(=O)c1ccc2ccccc2c1)C1CCOCC1` (stereo not drawn) [Example 11, N-Hydroxy-2-(naphthalene-2-sulfonylamino)-2-(tetrahydro-pyran-4-yl)-acetamide], the results for the concentration for half-maximal inhibition (IC50) in experiment [1] and in experiment [2] were 0.0927 µM and 0.0509 µM, respectively.
For `CC(C)[C@H](C(=O)NO)N(CCOc1cccc(Cl)c1)S(=O)(=O)c1ccc2ccccc2c1` [Example 62, N-(2-(3-chlorophenoxy)ethyl)-N-(naphthalene-2-sulfonyl)-D-valine hydroxamic acid] the same measures were 3.89 µM and 0.138 µM.
